# Experimental data reported in US12071431B2, “Pyridin-sulfonamide compounds for the treatment of conditions related to interleukin 1 beta” (ALLINKY BIOPHARMA, priority 2018, dated 2024).
# Key:
# Recombinant Human MAPK8 = Recombinant Human MAPK8 (Homo sapiens, UniProt P45983); assay: In vitro binding of JNK1 (MAPK8), SPRi; conditions: 4° C.
# Method: Example 13—In Vitro Binding of JNK1 (MAPK8)
# (§1) Various concentrations of Recombinant Human MAPK8 dissolved in water were manually printed onto a bare gold-coated (thickness 47 nm) PlexArray Nanocapture Sensor Chip (Plexera Bioscience, Seattle, WA, US) at 40% humidity. Each concentration was printed in replicate, and each spot contained 0.2 μL of the protein solution. The chip was incubated in 80% humidity at 4° C. overnight, and rinsed with 10×PBST for 10 min, 1×PBST for 10 min, and deionized water twice for 10 min. The chip was then blocked with 5% (w/v) non-fat milk in water overnight, and washed with 10×PBST for 10 min, 1×PBST for 10 min, and deionized water twice for 10 min before being dried under a stream of nitrogen prior to use.
# (§2) Surface Plasmon Resonance Imaging (SPRi) measurements were performed with PlexAray HT (Plexera Bioscience, Seattle, WA, US). Collimated light (660 nm) passes through the coupling prism, reflects off the SPR-active gold surface, and is received by the CCD camera. Buffers and samples were injected by a non-pulsatile piston pump into the 30 μL flowcell that was mounted on the coupling prism. Each measurement cycle contained four steps: washing with PBST running buffer at a constant rate of 2 μL/s to obtain a stable baseline, sample injection at 5 μL/s for binding, surface washing with PBST at 2 μL/s for 300 s, and regeneration with 0.5% (v/v) H3PO4 at 2 μL/s for 300 s. All the measurements were performed at 4° C.
# (§3) The signal changes after binding and washing were recorded in AU as the assay value. Selected protein-grafted regions in the SPR images were analyzed, and the average reflectivity variations of the chosen areas were plotted as a function of time. Real-time binding signals were recorded and analyzed by Data Analysis Module (DAM, Plexera Bioscience, Seattle, WA, US). Kinetic analysis was performed using BIAevaluation 4.1 software (Biacore, Inc.).
# [1] = test system: Non-Alcoholic Steatohepatitis (NASH) in male C57BL/6 mice; assay: Treatment of non-alcoholic steatohepatitis (NASH) in male C57BL/6 mice (streptozotocin + high-fat diet); type: in vivo
# Method: Example 15: Effect of Compound 5 and 7 in the Treatment of Non-Alcoholic Steatohepatitis (NASH) in Male C57BL/6 Mice
# Timed pregnant mice (n=30) were selected for the study. The delivered pups were subcutaneously injected on the post-natal day 2 (PND-2) with 200 μg of Streptozotocin and were allowed to remain with the mother until they reached the weanling age. After weanling, the male pups were selected and fed with 60% kcal fat diet (Research Diet-D12492) for the next 2 weeks. All the animals were observed twice daily for clinical signs.
# Mice were dosed with vehicle, test compounds and reference compound (elafibranor) twice daily morning (9.00 AM) and evening before the start of dark cycle (6:00 PM) from day 0 to 28.
# Animal body weight measurements were made daily for the complete duration of the experiment.
# Animals were dosed for 28 days (from week 6 to 10) with the test and reference compounds.
# Blood glucose was estimated before the treatment start and on the termination day 28. Serum ALT and AST levels were measured from the plasma before the treatment start and on day 28.
# Histopathology analysis including H&E staining, Masson's trichrome staining and Oil-Red-O (ORO) staining was performed for the liver tissues.
# All the H&E stained tissue sections were examined by light microscopy. As per the below grading system (Kleiner et al., 2005) in 200× objective lens, NAFLD scoring was done for steatosis, lobular inflammation and hepatic ballooning.
# All the Masson's trichrome stained tissue sections were examined by light microscopy in 100× objective lens. Randomly selected five fields (approx 684.85 μm×917.11 m per field) from each liver were subjected to collagen proportion area measurement by using Image Pro Premier 9.1 software. The percentage of collagen proportion area was calculated by dividing collagen tissue area by total tissue area.
# All the Oil-Red-O stained tissue sections were examined by light microscopy in 100× objective lens. Randomly selected five fields (approximately 688.33 μm×922.45 μm per field) from each liver were subjected to measure stained area by using Image Pro Premier 9.1 software. The percentage of stained area was calculated by dividing lipid stained tissue area by total tissue area.
# p38 MAPK = p38 MAPK (Homo sapiens, UniProt Q16539); assay: In vitro binding of p38 MAPK, SPRi
# Chain of p38 MAPK (Q16539 2-360): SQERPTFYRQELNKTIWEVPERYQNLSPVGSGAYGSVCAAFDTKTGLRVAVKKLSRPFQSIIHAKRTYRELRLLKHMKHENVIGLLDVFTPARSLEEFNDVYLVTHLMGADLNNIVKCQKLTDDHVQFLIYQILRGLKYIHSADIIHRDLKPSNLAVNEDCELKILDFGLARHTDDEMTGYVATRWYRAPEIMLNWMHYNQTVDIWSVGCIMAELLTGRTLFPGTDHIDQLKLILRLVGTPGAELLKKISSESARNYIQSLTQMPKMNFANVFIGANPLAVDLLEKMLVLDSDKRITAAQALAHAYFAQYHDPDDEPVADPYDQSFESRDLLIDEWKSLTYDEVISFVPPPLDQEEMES
# Method: Example 14—In Vitro Binding of p38 MAPK
# as §1, with “p38 MAPK” for “Recombinant Human MAPK8”, “of” for “of the”, “C. for” for “C.”
# as §2
# as §3, with “washing (in AU) are” for “washing were”, “recorded” for “recorded in AU”
# [2] = 3 mg/kg dose, twice daily, 28 days, H&E NAFLD scoring
# Chain of Recombinant Human MAPK8 (P45983 whole entry): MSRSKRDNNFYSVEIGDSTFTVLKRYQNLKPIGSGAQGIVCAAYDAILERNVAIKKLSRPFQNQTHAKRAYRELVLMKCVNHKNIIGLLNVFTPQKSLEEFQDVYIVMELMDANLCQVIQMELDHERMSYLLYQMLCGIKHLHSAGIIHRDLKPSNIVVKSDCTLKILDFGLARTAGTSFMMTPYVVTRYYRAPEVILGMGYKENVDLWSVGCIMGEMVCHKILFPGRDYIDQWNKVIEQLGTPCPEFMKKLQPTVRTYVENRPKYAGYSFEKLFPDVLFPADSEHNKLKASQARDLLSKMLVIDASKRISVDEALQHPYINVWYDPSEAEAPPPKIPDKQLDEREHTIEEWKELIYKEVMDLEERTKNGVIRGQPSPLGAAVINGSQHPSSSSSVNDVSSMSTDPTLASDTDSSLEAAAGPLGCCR
smiles,measurement,setting,value
CCOc1ccc(Oc2cc(S(=O)(=O)N(C)C)cnc2N2CCC(Oc3ccc(Cl)cc3)CC2)cc1 [Compound 7],kon,"Recombinant Human MAPK8; association rate, read-out: Ka",22900 M⁻¹ s⁻¹
same,koff,Recombinant Human MAPK8; dissociation rate,0.000782 s⁻¹
same,Kd,Recombinant Human MAPK8; read-out: equilibrium dissociation constant (KD Value),34.1 nM
same,NAFLD activity score (NAS),"[1]; 3 mg/kg dose, twice daily, 28 days, FIG. 1",better NAS score than Elafibranor
same,lobular inflammation in the liver,[1]; [2],significantly reduced
same,steatosis in the liver,[1]; [2],significantly reduced
same,hepatomegaly and liver to body weight ratio,"[1]; 28 days of treatment, FIG. 3",did not show any hepatomegaly and increase in liver to body weight ratio
same,Serum AST levels,"[1]; after 28 days of treatment, FIG. 2",significantly reduced
same,Kd,"p38 MAPK; SPRi, 4° C., p38 MAPK, read-out: equilibrium dissociation constant (KD Value)",11.9 nM
same,kon,p38 MAPK; read-out: Ka,20800 M⁻¹ s⁻¹
same,koff,p38 MAPK; read-out: Kd,0.000248 s⁻¹
